Laboratory results from patent publication US20240294484A1, “HERBICIDAL ARYLDIHYDROFURANE CARBOXYLATES” (BASF SE, priority 2021, published 2024).

Columns and labels:
AMARE [1] = experiment: greenhouse post-emergence herbicidal test; assay type: in vivo, Amaranthus retroflexus; conditions: post-emergence method, application rate 1,000 kg/ha; scale from 0 to 100
From the text: (§1) The culture containers used were plastic flowerpots containing loamy sand with approximately 3.0% of humus as the substrate. The seeds of the test plants were sown separately for each species.
(§2) For the pre-emergence treatment, the active ingredients, which had been suspended or emulsified in water, were applied directly after sowing by means of finely distributing nozzles. The containers were irrigated gently to promote germination and growth and subsequently covered with transparent plastic hoods until the test plants had rooted. This cover caused uniform germination of the test plants, unless this had been impaired by the active ingredients. For the post-emergence treatment, the test plants were first grown to a height of 3 to 15 cm, depending on the plant habit, and only then treated with the active ingredients which had been suspended or emulsified in water. For this purpose, the test plants were either sown directly and grown in the same containers, or they were first grown separately as seedlings and transplanted into the test containers a few days prior to treatment.
(§3) Depending on the species, the test plants were kept at 10-25° C. or 20-35° C., respectively. The test period extended over 2 to 4 weeks. During this time, the test plants were tended, and their response to the individual treatments was evaluated.
(§4) Evaluation was carried out using a scale from 0 to 100. […]

AVEFA = experiment: greenhouse post-emergence herbicidal test; assay type: in vivo, Avena fatua; conditions: post-emergence method, application rate 1,000 kg/ha; scale from 0 to 100
From the text: as §1, §2, §3, §4

APESV = experiment: greenhouse pre-emergence herbicidal test; assay type: in vivo, Apera spica-venti; conditions: pre-emergence method, application rate 1,000 kg/ha; scale from 0 to 100
From the text: as §1, §2, §3, §4

ECHCG = experiment: greenhouse pre-emergence herbicidal test; assay type: in vivo, Echinocloa crus-galli; conditions: pre-emergence method, application rate 1,000 kg/ha; scale from 0 to 100
From the text: as §1, §2, §3, §4

AMARE [2] = experiment: greenhouse pre-emergence herbicidal test; assay type: in vivo, Amaranthus retroflexus; conditions: pre-emergence method, application rate 1,000 kg/ha; scale from 0 to 100
From the text: as §1, §2, §3, §4

CCOC(=O)C1CC(c2cc(F)cc(F)c2)=CO1 (stereo not drawn) [compound 11, ethyl 4-(3,5-difluorophenyl)-2,3-dihydrofuran-2-carboxylate]
herbicidal activity against AMARE (AMARE [1]): very good herbicidal activity (a very good herbicidal activity is given at values of 90 to 100)

O=C(O)C1(C(F)(F)F)CC(c2cc(F)cc(F)c2)=CO1 (stereo not drawn) [compound 17, 4-(3,5-difluorophenyl)-2-(trifluoromethyl)-3H-furan-2-carboxylic acid]
herbicidal activity against AVEFA (AVEFA): very good herbicidal activity (a very good herbicidal activity is given at values of 90 to 100)

ethyl 4-(3,5-dichlorophenyl)-2-methyl-3H-furan-2-carboxylic acid [compound 14]
herbicidal activity against APESV (APESV): very good herbicidal activity (a very good herbicidal activity is given at values of 90 to 100) | herbicidal activity against ECHCG (ECHCG): very good herbicidal activity (a very good herbicidal activity is given at values of 90 to 100)

ethyl 4-(3,5-difluorophenyl)-2-methyl-3H-furan-2-carboxylic acid [compound 12]
herbicidal activity against AMARE (AMARE [2]): good herbicidal activity (A good herbicidal activity is given at values of 65 to 90) | herbicidal activity against ECHCG (ECHCG): good herbicidal activity (A good herbicidal activity is given at values of 65 to 90)
